What was measured:
Test in all cases: relative viability (nuclei count vs DMSO), 5 days (fraction); higher = more cells survive
Tivantinib + Luminespib = compound: O=C1NC(=O)[C@@H](c2cn3c4c(cccc24)CCC3)[C@@H]1c1c[nH]c2ccccc12 [Tivantinib] + CCNC(=O)c1noc(-c2cc(C(C)C)c(O)cc2O)c1-c1ccc(CN2CCOCC2)cc1 [Luminespib] (partner 0.01 µM)
Summary of the method: (§1)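 For relative viability, nuclei counts in treated wells were divided by those in vehicle wells. Lung cancer cell lines had been pin-tool dosed in 1536-well plates the day after seeding and cultured for 5 days, then fixed and stained in one step (final 0.05% Triton X-100, 1% formaldehyde, 1 ug/ml Hoechst) and imaged at 4×. Doses were one drug alone or a fixed anchor-drug dose plus five library-drug doses (not always all listed) in √10 steps, and values are duplicate-plate medians.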

Crenolanib + Navitoclax = compound: CC1(COc2ccc3c(c2)ncn3-c2ccc3cccc(N4CCC(N)CC4)c3n2)COC1 [Crenolanib] + CC1(C)CCC(c2ccc(Cl)cc2)=C(CN2CCN(c3ccc(C(=O)NS(=O)(=O)c4ccc(N[C@H](CCN5CCOCC5)CSc5ccccc5)c(S(=O)(=O)C(F)(F)F)c4)cc3)CC2)C1 [Navitoclax] (partner 0.5 µM)
Summary of the method: as §1

Crenolanib + Lapatinib = compound: CC1(COc2ccc3c(c2)ncn3-c2ccc3cccc(N4CCC(N)CC4)c3n2)COC1 [Crenolanib] + CS(=O)(=O)CCNCc1ccc(-c2ccc3ncnc(Nc4ccc(OCc5cccc(F)c5)c(Cl)c4)c3c2)o1 [Lapatinib] (partner 2 µM)
Summary of the method: as §1

Tivantinib + Dasatinib = compound: O=C1NC(=O)[C@@H](c2cn3c4c(cccc24)CCC3)[C@@H]1c1c[nH]c2ccccc12 [Tivantinib] + Cc1nc(Nc2ncc(C(=O)Nc3c(C)cccc3Cl)s2)cc(N2CCN(CCO)CC2)n1 [Dasatinib] (partner 0.075 µM)
Summary of the method: as §1

Row | Cell Line | relative viability (Tivantinib + Luminespib; first compound 0.01 µM) | relative viability (Tivantinib + Luminespib; first compound 0.03162 µM) | relative viability (Tivantinib + Luminespib; first compound 0.1 µM) | relative viability (Tivantinib + Luminespib; first compound 0.3162 µM) | relative viability (Crenolanib + Navitoclax; first compound 0.01 µM) | relative viability (Crenolanib + Navitoclax; first compound 0.03162 µM) | relative viability (Crenolanib + Navitoclax; first compound 0.1 µM) | relative viability (Crenolanib + Navitoclax; first compound 0.3162 µM) | relative viability (Crenolanib + Navitoclax; first compound 1 µM) | relative viability (Crenolanib + Lapatinib; first compound 0.01 µM) | relative viability (Crenolanib + Lapatinib; first compound 0.03162 µM) | relative viability (Crenolanib + Lapatinib; first compound 0.1 µM) | relative viability (Crenolanib + Lapatinib; first compound 0.3162 µM) | relative viability (Crenolanib + Lapatinib; first compound 1 µM) | relative viability (Tivantinib + Dasatinib; first compound 0.01 µM) | relative viability (Tivantinib + Dasatinib; first compound 0.03162 µM) | relative viability (Tivantinib + Dasatinib; first compound 0.1 µM) | relative viability (Tivantinib + Dasatinib; first compound 0.3162 µM)
1 | NCI-H3122 | 0.0944 | 0.103 | 0.0763 | 0.0784 | 0.987 | 1 | 0.985 | 1.04 | 1 | 1.02 | 0.976 | 1.01 | 1.09 | 1.21 | 0.808 | 0.808 | 0.788 | 0.686
2 | LOU-NH91 | 0.373 | 0.369 | 0.309 | 0.367 | 0.853 | 0.702 | 0.645 | 0.641 | 0.737 | 0.798 | 0.742 | 0.774 | 0.737 | 0.772 | 0.586 | 0.565 | 0.568 | 0.464
3 | NCI-H647 | 0.155 | 0.141 | 0.14 | 0.135 | 1.13 | 1.22 | 0.967 | 1.11 | 0.98 | 1.04 | 0.996 | 1.05 | 1.16 | 1.08 | 0.188 | 0.194 | 0.149 | 0.195
4 | NCI-H838 | 0.276 | 0.308 | 0.302 | 0.335 | 1.19 | 1.16 | 1.21 | 1.2 | 1.02 | 1.07 | 0.966 | 0.993 | 1.02 | 0.805 | 0.324 | 0.296 | 0.274 | 0.276
5 | HARA | 0.909 | 0.592 | 0.738 | 0.689 | 1.13 | 1.16 | 1.16 | 1.18 | 1.16 | 0.711 | 0.81 | 0.645 | 0.602 | 0.684 | 0.293 | 0.302 | 0.299 | 0.225
6 | SK-MES-1 | 0.763 | 0.747 |  | 0.828 | 1.4 | 1.4 | 1.25 | 1.45 | 1.2 | 0.449 | 0.504 | 0.422 | 0.467 | 0.458 | 0.521 | 0.386 | 0.309 | 0.186
7 | LXF-289 | 0.757 | 0.646 | 0.599 | 0.723 | 0.92 | 0.977 | 0.873 | 1 | 0.929 | 0.887 | 0.918 | 0.889 | 0.908 | 0.838 | 0.302 | 0.261 | 0.19 | 0.175
8 | HOP-62 | 0.889 | 0.892 | 0.917 | 0.89 | 1.08 | 0.958 | 0.81 | 1.06 | 1.12 | 0.869 | 1 | 0.991 | 1.08 | 0.834 | 0.711 | 0.521 | 0.606 | 0.739
9 | LK-2 | 0.217 |  | 0.208 | 0.197 | 0.909 | 1.07 | 0.93 | 1.05 | 0.933 | 0.942 | 0.812 | 0.935 | 0.938 | 0.851 | 0.281 |  | 0.341 | 0.301
10 | BEN | 0.361 | 0.262 | 0.232 | 0.385 | 0.0589 | 0.0559 | 0.0723 | 0.0658 | 0.0687 | 0.808 | 0.552 | 0.746 | 0.685 | 0.68 | 0.293 | 0.308 | 0.382 | 0.359
11 | NCI-H2347 | 0.726 | 0.35 | 0.285 | 0.316 | 0.835 | 0.815 | 0.478 | 0.885 | 0.865 | 0.981 | 0.903 | 0.663 | 1.05 | 0.873 | 0.345 | 0.267 | 0.283 | 0.306
12 | NCI-H1395 | 0.82 | 0.662 | 0.557 | 0.403 | 1.13 | 1.26 | 1.07 | 1.18 | 1.15 | 1.02 | 1.06 | 0.915 | 0.942 | 0.971 | 0.396 | 0.339 | 0.437 | 0.434
13 | 201T | 1.07 | 1.05 | 1.01 | 1.09 | 1.19 | 1.21 | 1.16 | 1.16 | 1.24 | 1 | 1.02 | 1.03 | 0.965 | 1.01 | 0.562 | 0.566 | 0.547 | 0.554
14 | NCI-H2170 | 0.527 | 0.594 | 0.672 |  | 0.612 | 0.549 | 0.65 | 0.665 | 0.579 | 0.272 | 0.283 | 0.281 | 0.276 | 0.247 | 0.659 | 0.469 | 0.558 | 
15 | NCI-H520 | 0.212 | 0.218 | 0.209 | 0.198 | 0.962 | 1.13 | 1.01 | 1.15 | 1.01 | 0.664 | 0.848 | 0.88 | 0.85 | 0.778 | 0.204 | 0.185 | 0.193 | 0.221
16 | NCI-H727 | 0.334 | 0.37 | 0.514 | 0.253 | 0.57 | 0.414 | 0.462 | 0.467 | 0.362 | 0.936 | 0.662 | 0.752 | 0.856 | 0.686 | 0.529 | 0.344 | 0.306 | 0.275
17 | NCI-H1650 | 0.203 | 0.191 | 0.203 | 0.192 | 1.22 | 1.13 | 1.14 | 1.6 | 1.34 | 0.799 | 0.918 | 0.783 | 0.719 | 0.512 | 0.41 | 0.289 | 0.276 | 0.313
18 | LCLC-97TM1 | 0.773 | 0.788 | 0.673 | 0.764 | 0.489 | 0.525 | 0.489 | 0.473 | 0.445 | 0.895 | 0.861 | 0.748 | 0.959 | 0.784 | 0.796 | 0.61 | 0.869 | 0.824
19 | NCI-H460 | 0.0321 | 0.0359 | 0.0227 | 0.0374 | 1.24 | 1.4 | 0.932 | 1.15 | 1.15 | 0.997 | 1 | 1.04 | 1.46 | 1.01 | 0.461 | 0.35 | 0.484 | 0.492
20 | H3255 | 0.934 | 0.811 | 0.741 |  | 0.607 | 0.419 | 0.421 | 0.501 | 0.492 | 0.271 | 0.218 | 0.241 | 0.233 | 0.24 | 0.35 | 0.38 | 0.361 | 

— the supplement of paper PMC10307832
